Experiments:
MDA-MB-231 cells [1] = assay: PARP cleavage assay (Western blot); type: cell-based
Method: Cells were plated in 75 cm^2 flasks and cultured for 6 days with 1 μl/mL DMSO (control) or 1 μM 1-oxo-2-(2,6-dioxopiperidin-3-yl)-4-aminoisoindoline and 100 nM 1,25 D3, each alone or in combination. For each time point, medium was removed and cells were washed with ice-cold PBS. Cells were then lysed with RIPA buffer (1% NP40, 0.5% sodium deoxycholate, 0.1% SDS, PBS) and the lysate was centrifuged at 13000 rpm for 20 minutes at 4° C. The supernatant was collected and an aliquot taken for measuring protein concentration. The protein estimation was determined for each lysate using the Bio-Rad DC Protein Assay Kit according to the manufacturer's instructions. The protein extract was mixed with SDS (1/4), sonicated 10 seconds, and protein concentration was determined by Bradford assay.
SDS-polyacrylamide gel electrophoresis (SDS-PAGE) was run on a Mini Trans-Blot Module apparatus (Bio-Rad). The percentage of polyacrylamide/bis-acrylamide in the resolving gel in this experiment was 12% v/v. The following reagents were used for stacking gel: 0.67 mL 30% acrylamide/bis-acrylamide; 2.7 mL H2O; 0.5 mL 1M trizma; 0.01 mL 10% ammonium persulfate; and 0.04 mL SDS. The following reagents were used for resolving gel: 3.3 mL 30% acrylamide/bis-acrylamide; 4 mL H2O; 2.5 mL 1M trizma; 0.1 mL 10% ammonium persulfate; and 0.1 mL 10% SDS.
Once the resolving gel was prepared, polymerization was initiated by addition of 10 μl N′,N′,N′,N′-teramethylethylene-diamine (TEMED). Lysates were boiled for 5 minutes and chilled on ice then loaded into the stacking gel, with volumes adjusted so that equal amounts of protein were loaded. Rainbow colored markers (Sigma Aldrich) were also added in one well to monitor the electrophoretic solution. Electrophoresis was performed at 40 mA constant current for 1 to 2 hours in running buffer (10×25 mM trizma, 192 mM glycine, 0.1% SDS).
For western blotting, the proteins were transferred from the gel onto Hybond C-Super nitrocellulose membrane (Amersham International, U.K.) in a Mini Trans-Blot apparatus (Bio-Rad) according to the manufacturer's instructions. Transfer was performed at 100 V for 1.5 to 2 hours in transfer buffer (25 mM Tris base, 192 mM glycine, 20% methanol, pH 8.2). The nitrocellulose was blocked after 1 hour with milk solution (PBS 1×, 1% Tween 20, 1% Triton X100, 5% fat-free milk). The membrane was then stained for 1 hour with the primary antibodies Total-PARP and Cleaved-PARP in the milk solution. The membrane was washed with milk solution and stained with secondary antibody (anti-rabbit from Sigma Aldrich) for 1 hour. […] The membrane was then wrapper in cling-film and placed in a cassette and, in the dark, pieces of autography film (GRI) were placed over it and left for the desired time before being put through a developer.
Cells were lysed in RIPA buffer containing 1% NP40, 0.5% sodium deoxycholate, 0.1% SDS, PBS. Equal amounts of protein (20 μg per lane) were subjected to SDS-PAGE and transferred to nitrocellulose membranes. Membranes were blocked with 5% milk in 0.05% Tween-20/TBS and then incubated with the first antibody in 0.5% milk overnight. Membranes were then incubated with the secondary anti-mouse or anti-rabbit horseradish peroxidase conjugated antibody. Bands were visualised using the enhanced chemiluminescence Western blotting detection system (ECL, Amersham, N.J., USA). Densitometric analysis was performed using Adobe Photoshop CS2. Anti-cleaved PARP and anti-total PARP antibodies (New England biolab, Cell Signalling), were used at a dilution of 1/1000 and anti-rabbit (AbCam, UK), at a dilution of 1/5000.
Cells were also treated with 0.1% DMSO as a control. […] Cells treated with 0.1% DMSO were used as a control (day 0). Cell lysates were probed for cleaved-PARP(C-PARP) and total PARP (T-PARP). Data shown are representative of three identical experiments.

breast cancer cell lines = settings: literature (Colston et al.); cited from earlier work
MCF-12A cells = assay: Cell viability by neutral red assay, MCF-12A; type: cell-based
Method: (§1) Cells were seeded in 24 wells plates at a density of 10^4 cells per well and allowed to adhere for 24 hours. […] The drug was renewed every 2 days. Cell viability was then determined by neutral red assay, measuring absorbance at 550 nm.
(§2) After 6 days treatment, cells were seeded into 24 well plates at a density of 1×10^4 cells/wells. After 24 h, cells were treated with reagents or vehicle for up to six days. At the end of the incubation period, medium was removed and cells were incubated with neutral red solution (40 μg/ml in phenol red and serum free DMEM) for 2 h at 37° C. After removal of the neutral red solution, wells were rinsed once with 1 ml 4% formal saline containing 0.5% CaCl2. Plates were inverted on paper towel to drain and 200 μl of elution fluid (1% acetic acid in 50% ethanol) was added. Following incubation at room temperature for 30 min with gentle shaking, absorbance at 550 nm was determined

MCF-7 cells = assay: Cell viability by neutral red assay, MCF-7; type: cell-based
Method: as §1, §2

MCF-7/VD^R cells [2] = assay: Cell viability by neutral red assay, MCF-7/VD^R; type: cell-based; settings: up to 6 days
Source text: (§3) Non-treated cells were used as a control.
as §3

MDA-MB-231 cells [3] = assay: Western blot of key signalling proteins (AKT, ERK1/2, VDR); type: cell-based; settings: 1 μM lenalidomide co-treatment with 100 nM 1,25-D3, 6 days
Method: More particularly, FIG. 11 illustrates the effects of co-treatment lenalidomide/1, 25-D3 on expression of key signalling proteins in MDA-MB-231 cells. […] Cells were also treated with 0.1% DMSO as a control. Whole proteins were extracted and probed for total AKT (T-AKT), phosphor-AKT (P-AKT), total ERK1/2 (T-ERK1/2), phospho-ERK1/2 (P-ERK1/2), phosphor-p38 and total p38, VDR and b-actin as a house-keeping protein. Representative blots for the three experiments are shown.

MCF-7/VD^R cells [4] = assay: BCL-2 expression by immunoblotting, MCF-7/VD^R; type: cell-based; settings: 1 μM lenalidomide and 100 nM 1,25-D3 alone or in combination, 6 days, FIG. 15
Method: Cells were also treated with 0.1% DMSO as a control. Whole cells extracts were prepared and analysed by immuoblotting BCL-2 antibody. β-actin was used as a loading control.
Cells were also treated with 0.1% DMSO a control. Whole proteins were extracted and probes for BCL-2. β-actin was used as a loading control.

[5] = single agent: 1 μM lenalidomide or 100 nM 1,25 D3 alone, up to 6 days
[6] = 100 nM 1,25-D3 alone, up to 6 days, FIG. 7A
[7] = 1,25 D3 0-100 nM, 7 days, FIG. 1
[8] = single agent, up to 6 days, Thalidomide 0.01-100 μM, CC-4047 and lenalidomide 0.001-10 μM, FIG. 6A

SMILES | PARP cleavage (MDA-MB-231 cells [1]; [5]) | PARP cleavage (MDA-MB-231 cells [1]; single agent: 1 μM lenalidomide or 100 nM 1,25 D3 alone, up to 6 days, listed as vitamin D) | IC50 values (breast cancer cell lines) | inhibition of viability (MCF-12A cells; [6]) [%] | sensitivity of cell viability to vitamin D agent treatment (MCF-12A cells; [7]) | inhibition of viability (MCF-7 cells; [6]) [%] | sensitivity of cell viability to vitamin D agent treatment (MCF-7 cells; [7]) | differences in viability (MCF-7/VD^R cells [2]; lenalidomide 0 μM up to 10 μM, FIG. 13, p>0.05) | differences in viability (MCF-7/VD^R cells [2]; lenalidomide 0.01-1 μM alone or in combination with 1,25-D3 0-1000 nM, FIG. 14, p>0.05) | AKT and ERK1/2 activation and VDR protein expression (MDA-MB-231 cells [3]) | PARP cleavage (MDA-MB-231 cells [1]; 1 μM lenalidomide in combination with 100 nM 1,25 D3, up to 6 days) | PARP cleavage (MDA-MB-231 cells [1]; 1 μM lenalidomide in combination with 100 nM 1,25 D3, up to 6 days, listed as 1-oxo-2-(2,6-dioxopiperidin-3-yl)-4-aminoisoindoline) | PARP cleavage (MDA-MB-231 cells [1]; single agent: 1 μM lenalidomide or 100 nM 1,25 D3 alone, up to 6 days, listed as 1-oxo-2-(2,6-dioxopiperidin-3-yl)-4-aminoisoindoline) | effects on BCL-2 expression (MCF-7/VD^R cells [4]) | effect on cell viability (MCF-12A cells; [8]) | effect on cell viability (MCF-7 cells; [8])
C=C1/C(=C\C=C2/CCC[C@]3(C)[C@@H]([C@H](C)CCCC(C)(C)O)CC[C@@H]23)C[C@@H](O)C[C@@H]1O [1,25-D3, 1α,25-dihydroxyvitamin D3] | no effect | no PARP cleavage | in the nM region | 35 | showed sensitivity | 40 | showed sensitivity |  |  |  |  |  |  |  |  | 
Nc1cccc2c1CN(C1CCC(=O)NC1=O)C2=O (centres unmarked) [Lenalidomide, 1-oxo-2-(2,6-dioxopiperidin-3-yl)-4-aminoisoindoline] | no effect |  |  |  |  |  |  | No significant differences | No significant differences | No Effect | starts to be cleaved after 2 days of treatment | significant level of cleaved PARP | no PARP cleavage | no effects | do not Affect | do not Affect

From patent publication US8841325B2, “Immunomodulatory compounds for the restoration of vitamin D sensitivity in vitamin D resistant tumor cells” (Celgene Corporation, priority 2009, dated 2014)
